{"source": "patent US11701373B2", "about": "“Substituted bicyclic compounds” (BRISTOL-MYERS SQUIBB COMPANY, priority 2014, dated 2023)", "key": {"Lewis rats": {"tested_on": "Lewis rats", "test": "Blood Lymphocyte Reduction (BLR) Assay in rat", "type": "in vivo", "settings": "for Percent reduction vs. control at 24 hr post-dose (blood lymphocytes): rat, oral, 0.1 mg/kg", "protocol": "(§1) Blood Lymphocyte Reduction (BLR) Assay in Rodent:\n(§2) Lewis rats or BALB/c mice were dosed orally with vehicle alone (polyethylene glycol 300, “PEG300”) or with test compounds. Compounds were dosed as a solution or suspension in the vehicle, adjusted to reflect the free amount of test article in the event that salt forms are utilized. Blood was drawn at 24 hr and blood lymphocyte counts were determined on an ADVIA 120 Hematology Analyzer (Siemens Healthcare Diagnostics). The results were measured as a reduction in the percentage of circulating lymphocytes as compared to the vehicle treated group at the time of measurement. The results represent the average results of all animals within each treatment group (n=2-4)."}, "Male Lewis rats": {"tested_on": "Male Lewis rats", "test": "Rat Adjuvant Induced Arthritis Assay (AA)", "type": "in vivo", "settings": "prophylactic oral dosing regimen", "protocol": "Rat Adjuvant Induced Arthritis Assay (AA)\nThe rat adjuvant-induced arthritis model is an animal model for human rheumatoid arthritis.\nMale Lewis rats (150-175 g; Harlan, n=8 treatment group) were immunized at the base of the tail with 100 μl of 10 mg/ml freshly ground Mycobacterium butyricum (Difco Laboratories) in incomplete Freund's adjuvant (sigma). Animals were dosed once daily with the test article (as a solution or suspension in the vehicle) or vehicle alone (polyethylene glycol 300, “PEG300”) starting from the day of immunization. The volumes of their hind paws were measured in a water displacement plethysmometer (Ugo Basile, Italy). The baseline paw measurements were taken before onset of the disease (between day 7 to day 10). The paw measurements were then taken three times a week until the end of the study on day 20 to 21. All procedures involving animals were reviewed and approved by the Institutional Animal Care Use Committee."}, "C57BL/6 mice": {"tested_on": "C57BL/6 mice", "test": "Mouse Experimental Autoimmune Encephalomyelitis Assay (EAE)", "type": "in vivo", "settings": "for inhibition of disease progression as measured by clinical scores: C57Bl/6 mice, prophylactic oral dosing regimen; for Clinical scores on day 22, Mean: C57BL/6 mice, prophylactic, vehicle mean 4.1", "protocol": "Mouse Experimental Autoimmune Encephalomyelitis Assay (EAE)\nMice (C57BL/6 female, 6-8 weeks of age, Charles River, n=10 treatment group) were immunized subcutaneously with 150 μg MOG35-55 emulsified 1:1 with incomplete Freund's adjuvant (sigma) supplemented with 150 μg Mycobacterium tuberculosis H37RA (Difco Laboratories). 400 ng of pertussis toxin (CalBiochem) was injected intraperitoneally on the day of immunization and 2 day later. Clinical scoring and body weight were taken 3 times per week. Clinical scoring system: 0.5: partial tail weakness; 1: limp tail or waddling gait with tail tonicity; 1.5: waddling gait with partial tail weakness; 2: waddling gait with limp tail (ataxia); 2.5: ataxia with partial limb paralysis; 3: full paralysis of one limb; 3.5: full paralysis of one limbs with partial paralysis of a second limb; 4: full paralysis of two limbs; 4.5: moribund; 5: death. Mean clinical score was calculated by averaging the scores of all mice in each group. All procedures involving animals were reviewed and approved by the Institutional Animal Care Use Committee."}, "Female Lewis rats": {"tested_on": "Female Lewis rats", "test": "Rat Experimental Autoimmune Encephalomyelitis (EAE)", "type": "in vivo", "settings": "prophylactic oral dosing regimen", "protocol": "Rat Experimental Autoimmune Encephalomyelitis (EAE)\nFemale Lewis rats (150-200 g; Harlan) were immunized at the base of the tail with 0.1 ml of a complete Freund's adjuvant emulsion containing 0.5 mg/mL guinea pig myelin basic protein (Genemed Synthesis) and 2 mg/mL Mycobacterium butyricum (Difco). Beginning on Day 7, rats (n=11/group) were scored individually at least 3×/wk according to the following scheme:\nAverage clinical scores were calculated for each treatment group on each day of assessment."}, "BALB/c mice": {"tested_on": "BALB/c mice", "test": "Blood Lymphocyte Reduction (BLR) Assay in mouse", "type": "in vivo", "protocol": "as §1, §2"}, "Male MRL/lpr mice": {"tested_on": "Male MRL/lpr mice", "test": "MRL/lpr Lupus Model (anti-dsDNA antibody titers, kidney histology)", "type": "in vivo, mouse", "settings": "for Anti-dsDNA antibody titers (23 weeks of age) (Mean): ratio to pooled MRL/lpr immune serum titer; for Kidney Histology (nephritis) 23 weeks of age (Mean): total score, highest possible 36", "protocol": "MRL/lpr is a spontaneous model of lupus. Male MRL/lpr mice (Jackson Laboratory) at the age of 12-14 weeks were enrolled for the study (N=12). Mice were dosed p.o. daily with vehicle (18.4% (w/v) hydroxypropyl-b-cyclodextrin in 13.8 mM citric acid) or with Example 681 at 0.06, 0.3, 1.5 mg/kg. Mice were bled every other week for anti-dsDNA antibodies measured by ELISA using pooled serum from diseased MRL/lpr mice as a positive comparator in each assay. The data were expressed in arbitrary units as a ratio of the titer of the test serum to the titer of the pooled MRL/lpr immune serum.\nAt the end of study, one kidney was collected into 10% neutral buffered formalin and ZincTris fixatives. Fixed tissues were processed into paraffin blocks, sectioned at 3p m, and stained with H&E or PASH. Kidney sections were graded using following criteria: Glomerular Damage: 1. Mesangial matrix thickening, cell proliferation, 2. Crescent formation, cellular deposits/casts in Bowman's space, 3. Cellular infiltration, mononuclear cells in glomerular tufts, 4. Fibrosis of Bowman's capsule. Tubular damage: 1. Infiltration of mononuclear cells, 2. Severity of tubular damage, 3. Protein casts. Tubulo-interstitial damage: 1. Fibrosis, 2. Infiltration of mononuclear cells. Each subcategory was assigned a score from 0-4, with the scores for glomerular indices representing the mean from 20 glomeruli per kidney. The total score for each mouse was the sum of the above 9 subcategories, with the highest possible score=36."}}, "note": "Entries after “also recorded” stand apart in the source; their conditions may differ.", "data": [{"compound": "COCCCCCC1CCc2cc([C@@H]3CC[C@](N)(CO)C3)ccc2C1", "note": "(single isomer, unassigned) [Example 674]", "values": [{"measurement": "Percent reduction vs. control at 24 hr post-dose (blood lymphocytes)", "setting": "Lewis rats", "result": 30, "unit": "%"}]}, {"compound": "COCCCCCC1CCc2cc([C@@H]3CC[C@](N)(CO)C3)ccc2C1", "note": "(single isomer, unassigned) [Example 675]", "values": [{"measurement": "Percent reduction vs. control at 24 hr post-dose (blood lymphocytes)", "setting": "Lewis rats", "result": 63, "unit": "%"}]}, {"compound": "COCCCCC[C@H]1CCc2cc([C@H]3CC[C@](N)(CO)C3)ccc2C1", "note": "[Example 672, ((1R,3S)-1-amino-3-((S)-6-(5-methoxypentyl)-5,6,7,8-tetrahydronaphthalen-2-yl)cyclopentyl)methanol]", "values": [{"measurement": "inhibition of disease progression as measured by reduced paw swelling", "setting": "Male Lewis rats", "result": "showed inhibition of disease progression"}]}, {"compound": "CCOCCC[C@H]1CCc2cc([C@H]3CC[C@](N)(CO)C3)ccc2C1", "note": "[Example 678, ((1R,3S)-1-amino-3-((R)-6-(3-ethoxypropyl)-5,6,7,8-tetrahydronaphthalen-2-yl)cyclopentyl)methanol]", "values": [{"measurement": "Percent reduction vs. control at 24 hr post-dose (blood lymphocytes)", "setting": "Lewis rats", "result": 16, "unit": "%"}]}, {"compound": "CCOCCC[C@@H]1CCc2cc([C@H]3CC[C@](N)(CO)C3)ccc2C1", "note": "[Example 679, ((1R,3S)-1-amino-3-((S)-6-(3-ethoxypropyl)-5,6,7,8-tetrahydronaphthalen-2-yl)cyclopentyl)methanol]", "values": [{"measurement": "Percent reduction vs. control at 24 hr post-dose (blood lymphocytes)", "setting": "Lewis rats", "result": 65, "unit": "%"}, {"measurement": "inhibition of disease progression as measured by reduced paw swelling", "setting": "Male Lewis rats", "result": "showed inhibition of disease progression"}, {"measurement": "inhibition of disease progression as measured by clinical scores", "setting": "C57BL/6 mice", "result": "showed inhibition of disease progression; also recorded: inhibit disease progression"}, {"measurement": "inhibition of disease progression as measured by reduced clinical scores", "setting": "Female Lewis rats", "result": "showed inhibition of disease progression"}]}, {"compound": "COc1ccccc1CC[C@H]1CCc2cc([C@H]3CC[C@](N)(CO)C3)ccc2C1", "note": "[Example 682, ((1R,3S)-1-amino-3-((R)-6-(2-methoxyphenethyl)-5,6,7,8-tetrahydronaphthalen-2-yl)cyclopentyl)methanol]", "values": [{"measurement": "Percent reduction vs. control at 24 hr post-dose (blood lymphocytes)", "setting": "Lewis rats", "result": 17, "unit": "%"}]}, {"compound": "((1R,3S)-1-amino-3-((S)-6-(2-methoxyphenethyl)-5,6,7,8-tetrahydronaphthalen-2-yl)cyclopentyl)methanol [Example 681]", "values": [{"measurement": "Percent reduction vs. control at 24 hr post-dose (blood lymphocytes)", "setting": "Lewis rats", "result": 53, "unit": "%"}, {"measurement": "lymphocyte reduction", "setting": "Lewis rats; rodent BLR assay, 0.1 mg/kg oral, 24 hours post-dose, versus vehicle group", "result": 53, "unit": "%"}, {"measurement": "lymphocyte reduction", "setting": "BALB/c mice; mice, 0.5 mg/kg oral, 24 hours post dose", "result": 85, "unit": "%"}, {"measurement": "Mouse Blood Lymphocyte Reduction Assay at 24 hr post-dose Percent reduction vs. control", "setting": "BALB/c mice; mouse, oral, 0.5 mg/kg, 24 hr post-dose", "result": 85, "unit": "%"}, {"measurement": "Clinical scores on day 22, Mean", "setting": "C57BL/6 mice; 0.1 mg/kg oral", "result": 3.1}, {"measurement": "Clinical scores on day 22, Mean", "setting": "C57BL/6 mice; 0.5 mg/kg oral", "result": 1.1}, {"measurement": "Clinical scores on day 22, Mean", "setting": "C57BL/6 mice; 2 mg/kg oral", "result": 0.8}, {"measurement": "inhibition of disease progression as measured by clinical scores", "setting": "C57BL/6 mice", "result": "showed inhibition of disease progression; also recorded: inhibit disease progression"}, {"measurement": "Anti-dsDNA antibody titers (23 weeks of age) (Mean)", "setting": "Male MRL/lpr mice; 0.06 mg/kg p.o. daily", "result": 1.861, "unit": "arbitrary units"}, {"measurement": "Kidney Histology (nephritis) 23 weeks of age (Mean)", "setting": "Male MRL/lpr mice; 0.06 mg/kg p.o. daily", "result": 10.13}, {"measurement": "Anti-dsDNA antibody titers (23 weeks of age) (Mean)", "setting": "Male MRL/lpr mice; 0.3 mg/kg p.o. daily", "result": 0.978, "unit": "arbitrary units"}, {"measurement": "Kidney Histology (nephritis) 23 weeks of age (Mean)", "setting": "Male MRL/lpr mice; 0.3 mg/kg p.o. daily", "result": 10.00}, {"measurement": "Anti-dsDNA antibody titers (23 weeks of age) (Mean)", "setting": "Male MRL/lpr mice; 1.5 mg/kg p.o. daily", "result": 1.023, "unit": "arbitrary units"}, {"measurement": "Kidney Histology (nephritis) 23 weeks of age (Mean)", "setting": "Male MRL/lpr mice; 1.5 mg/kg p.o. daily", "result": 12.63}, {"measurement": "inhibition of disease progression as measured by anti-dsDNA titers", "setting": "Male MRL/lpr mice; p.o. daily", "result": "showed inhibition of disease progression"}, {"measurement": "inhibition of disease progression as measured by kidney histology", "setting": "Male MRL/lpr mice; p.o. daily", "result": "showed inhibition of disease progression"}]}]}
